Legend:
sarcoma 180 = tested on: sarcoma 180; design: method as in doi:10.1021/jo00316a018; settings: cited from earlier work
Lewis lung carcinoma = tested on: Lewis lung carcinoma; design: method as in doi:10.1021/jo00316a018; settings: cited from earlier work
P-388 lymphotic leukemia = tested on: P-388 lymphotic leukemia; design: method as in doi:10.1021/jo00316a018; settings: cited from earlier work
[1] = tested on: Walker 256 carcinosarcoma; design: method as in doi:10.1021/jo00316a018; settings: cited from earlier work
[2] = tested on: human prostate cancer cells DU145; test: Cytotoxicity assay (PrestoBlue, resazurin); format: cell-based; settings: 10 and 100 μM, 48 h
Description: (§1) Synthesized substances were dissolved in DMSO (Sigma-Aldrich) to obtain 20 mM stock solutions and kept in 4 °C prior to use.
(§2) The human prostate cancer cells DU145 and mouse melanoma cells B16F10 were maintained in humidified incubator containing 5 % CO2 at 37 °C. DU145 cells were cultured in RPMI medium and B16F10 were cultured in DMEM medium. The media were supplemented with 10 % of fetal calf serum (FCS) and 1 % of antibiotic antimycotic (Sigma). Cells were passaged every 2–3 days. All cell lines were obtained from ATCC (The Global Bioresource Center).
(§3) PrestoBlue (test based on resazurin) was used for analysis cytotoxicity/cytostatic effects. DU145 and B16F10 cells were seeded on 96-well plate (10 × 10^3 cells per well). Examined substances were added to culture after overnight cell incubation. Two concentrations of substances (10 and 100 μM) were used. Control cells and control cells with solvent (DMSO) were applied. After 48 h PrestoBlue test was performed.

[3] = tested on: mouse melanoma cells B16F10; test: Cytotoxicity assay (PrestoBlue, resazurin); format: cell-based; settings: B16-F10 (melanoma), 10 and 100 μM, 48 h
Description: as §1, §2, §3

[4] = Lipophilicity by reversed-phase TLC on RP-18 WF254s plates with standardization; settings: for φ 0 (intercept of the trend line with abscissa axis): molar fraction for which lipophilicity equals 0
leukemia HL-60 (TB) = tested on: leukemia HL-60 (TB); design: method as in PMID 21439691; settings: cited from earlier work
leukemia K-562 = tested on: leukemia K-562; design: method as in PMID 21439691; settings: cited from earlier work
leukemia RPMI-8226 = tested on: leukemia RPMI-8226; design: method as in PMID 21439691; settings: cited from earlier work
[5] = tested on: non-small-cell lung cancer NCI-H522; design: method as in PMID 21439691; settings: cited from earlier work
prostate cancer PC-3 = tested on: prostate cancer PC-3; design: method as in PMID 21439691; settings: cited from earlier work
[6] = known logP of standards; cited from earlier work

SMILES	S (slope of the trend line RM vs φ) ([4]; acetonitrile/water)	φ 0 (intercept of the trend line with abscissa axis) ([4]; acetonitrile/water)	S (slope of the trend line RM vs φ) ([4]; dioxane/water)	φ 0 (intercept of the trend line with abscissa axis) ([4]; dioxane/water)	S (slope of the trend line RM vs φ) ([4]; isopropanol/water)	φ 0 (intercept of the trend line with abscissa axis) ([4]; isopropanol/water)	S (slope of the trend line RM vs φ) ([4]; methanol/water)	φ 0 (intercept of the trend line with abscissa axis) ([4]; methanol/water)	melting point	further results
C/C(=C\COc1ccc2ccc(=O)oc2c1)C1=CC(=O)C(C)(C)O1 [Geiparvarin]	–	–	–	–	–	–	–	–	–	inhibitory activity (sarcoma 180): significant inhibitory activity; inhibitory activity (Lewis lung carcinoma): significant inhibitory activity; inhibitory activity (P-388 lymphotic leukemia): significant inhibitory activity; inhibitory activity [1]: significant inhibitory activity
CC(=O)c1c(C)cc2oc(=O)cc(C)c2c1O [Compound 3, 6-acetyl-5-hydroxy-4,7-dimethylcoumarin]	3.706	0.519	4.1018	0.55	3.15	0.479	3.2113	0.754	–	cytotoxicity in primary screen [2]: slightly active; cytotoxicity in primary screen [3]: slightly active
CC(=O)c1c(C)cc2oc(=O)cc(C)c2c1OCC#N [Compound 6, 6-acetyl-5-(cyanomethoxy)-4,7-dimethylchromen-2-one]	3.7596	0.517	3.2502	0.501	3.2079	0.383	2.3247	0.577	283 to 284 °C	–
CC(=O)c1c(OCC#N)ccc2c(C)cc(=O)oc12 [8-Acetyl-7-(cyanomethoxy)-4-methylcoumarin]	–	–	–	–	–	–	–	–	–	growth inhibition (leukemia HL-60 (TB)): inhibited the growth; growth inhibition (leukemia K-562): inhibited the growth; growth inhibition (leukemia RPMI-8226): inhibited the growth; growth inhibition [5]: inhibited the growth; growth inhibition (prostate cancer PC-3): inhibited the growth
N#CCOc1cc(=O)oc2ccccc12 [Compound 4, 4-(cyanomethoxy)chromen-2-one]	2.8179	0.438	2.5467	0.452	2.2371	0.401	2.2036	0.607	204 °C	–
Cc1cc(O)c2c(C)cc(=O)oc2c1 [Compound 2, 5-hydroxy-4,7-dimethylcoumarin]	3.2466	0.437	3.3439	0.483	2.8574	0.445	2.746	0.675	–	cytotoxicity in primary screen [2]: slightly active; cytotoxicity in primary screen [3]: slightly active
Nc1ccc(Cl)c(Cl)c1 [3,4-Dichloroaniline, 3,4-dichloroaniline, reference compound]	3.2165	–	3.3499	–	4.4484	–	3.2073	–	–	LogP value [6]: 2.69; R M0 (lipophilicity extrapolated to 100 % water) ([4]; acetonitrile/water): 1.7807; R M0 (lipophilicity extrapolated to 100 % water) ([4]; dioxane/water): 1.9357; R M0 (lipophilicity extrapolated to 100 % water) ([4]; isopropanol/water): 2.149; R M0 (lipophilicity extrapolated to 100 % water) ([4]; methanol/water): 2.1151
Cc1cc(OCC#N)c2c(C)cc(=O)oc2c1 [Compound 5, 5-(cyanomethoxy)-4,7-dimethylchromen-2-one]	3.3589	0.499	3.2254	0.498	2.3947	0.434	2.677	0.669	214 to 216 °C	–
